# Measured values: US20250019339A1, “SOLVENT COMPOUNDS FOR USE AS REPLACEMENTS FOR SLOW EVAPORATING SOLVENTS” (TBF ENVIRONMENTAL TECHNOLOGY INC., priority 2018, published 2025)
# Assays:
# Format in all cases: physicochemical
# [1] = Evaporation rate
# [2] = Boiling point
# [3] = Specific gravity
# [4] = Kauri-Butanol value
# [5] = Sustained combustion tests
# Method: (§1) (420.8° F.) • Flash Point: 85.5° C.
# [6] = Vapour pressure; settings: @25° C.
# [7] = Flash point, PMCC closed cup; settings: PMCC (Penske Martin Closed Cup)
# Method: as §1
structure (smiles),measurement,setting,value
"CCCCC(CC)COC(=O)OC (stereo not shown) [BibaSol, 2-ethylhexyl methyl carbonate]",Evaporation rate,[1],0.04
same,Boiling Point,[2],216 °C
same,Specific Gravity,[3],0.916
same,Kauri-Butanol Value,[4],77.5
same,Sustained combustion,[5],did not sustain combustion
same,Vapour pressure,[6],0.09 mm Hg
same,Flash Point,[7],85.5 °C
